A value given as a limit tells only on which side of the number the result lay.

Data set [1] in a line: Interaction with calcium phosphates (foaming). Format: physicochemical. As to conditions: 1 Kg powder added to 1800 ml of 10% solution, pH ~7. The procedure:
Disappearance of foaming was indicative of loss of surfactant from bulk solution. Increased hydrophobicity of the calcium phosphate was indicative of surfactant adsorption onto the solid particles.
A typical calcium based abrasive tooth paste formulation was prepared using dibasic calcium phosphate, dihydrate as the abrasive and conventional mixing techniques as shown below. […] This finding was in contrast to an earlier patent discussed above (U.S. Pat. No. 4,152,421) and was presumably so because of the strong interaction of the potassium dodecyl phosphate (1.2%) with the calcium phosphate abrasive.

The conditions of data set [2]: 1% solution, in vitro; cited from earlier work.
The conditions of data set [3]: 14C labeling, in the presence of saliva; cited from earlier work.

Consider `CCCCCCCCCCCCOP(=O)([O-])[O-].[K+].[K+]` [potassium dodecyl phosphate], for which, in data set [1], the “foaming of the solution after addition of dibasic calcium phosphate, dihydrate” value is “significantly reduced”.

For the compound dioctyl phosphate, the “rate of calcium demineralization on treated teeth” value in data set [2] is listed as “lower rate of calcium demineralization”.

For the compound dodecyl-3 EO monoalkyl phosphate, the “amount bonded to 40 mg HA” value in data set [3] was 0.20 to 0.35 mg.

Turning to hexadecyl-8 EO ethoxylate, the “amount bonded to 40 mg HA” value in data set [3] is recorded as under 0.05 mg.

The record behind these values is patent US9034308B2, “Anti-sensitivity, anti-caries, anti-staining, anti-plaque ultra-mild oral hygiene agent” (RHODIA OPERATIONS, priority 2003, dated 2015).
